Measurements published in ChEMBL document CHEMBL1122816, “Synthesis and activity of 5-(aminomethylene)-1,3-cyclohexanediones: enolic analogues of gamma-aminobutyric acid” (J Med Chem, 1985).
pIC50: −log10 of the molar value.

Columns and labels:
Rattus norvegicus = species on record: Rattus norvegicus; experiment: The inhibitory concentration of compound against sodium dependent [3H]GABA synaptosomal uptake in rats; type: functional
[1] = target: GABA-A receptor; anion channel; experiment: Displacement of [3H]GABA from Gamma-aminobutyric acid A (GABA-A) receptor in rat brain membranes; type: cell membranes
GABA B receptor = GABA B receptor (Rattus norvegicus, UniProt O88871+Q9Z0U4); experiment: Displacement of [3H]baclofen from Gamma-aminobutyric acid type B receptor in rat brain membranes; type: cell membranes
Chain of GABA B receptor (Q9Z0U4 whole entry): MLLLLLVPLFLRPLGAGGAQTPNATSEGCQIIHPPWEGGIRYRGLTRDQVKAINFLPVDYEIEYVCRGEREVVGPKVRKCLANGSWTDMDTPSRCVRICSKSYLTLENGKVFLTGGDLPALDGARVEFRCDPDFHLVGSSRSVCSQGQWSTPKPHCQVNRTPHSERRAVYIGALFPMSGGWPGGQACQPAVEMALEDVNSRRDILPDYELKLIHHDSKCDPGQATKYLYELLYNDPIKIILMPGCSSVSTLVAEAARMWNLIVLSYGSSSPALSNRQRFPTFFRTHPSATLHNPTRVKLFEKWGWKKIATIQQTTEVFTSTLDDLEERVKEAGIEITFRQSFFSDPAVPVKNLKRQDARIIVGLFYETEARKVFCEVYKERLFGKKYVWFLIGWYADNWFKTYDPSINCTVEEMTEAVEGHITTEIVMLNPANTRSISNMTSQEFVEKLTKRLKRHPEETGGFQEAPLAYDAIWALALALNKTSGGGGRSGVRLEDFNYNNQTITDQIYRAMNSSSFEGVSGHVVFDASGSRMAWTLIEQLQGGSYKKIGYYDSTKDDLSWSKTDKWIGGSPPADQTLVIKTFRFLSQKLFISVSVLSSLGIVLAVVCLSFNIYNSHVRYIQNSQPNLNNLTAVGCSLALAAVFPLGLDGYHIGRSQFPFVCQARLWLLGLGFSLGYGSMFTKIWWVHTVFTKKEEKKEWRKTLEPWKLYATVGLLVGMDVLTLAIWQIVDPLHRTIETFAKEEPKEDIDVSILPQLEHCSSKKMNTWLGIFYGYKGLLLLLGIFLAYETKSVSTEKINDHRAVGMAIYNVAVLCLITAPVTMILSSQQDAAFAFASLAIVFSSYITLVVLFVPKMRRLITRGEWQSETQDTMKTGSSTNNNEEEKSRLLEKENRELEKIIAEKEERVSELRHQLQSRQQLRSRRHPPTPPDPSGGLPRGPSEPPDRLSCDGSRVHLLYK
Chain of GABA B receptor (O88871 whole entry): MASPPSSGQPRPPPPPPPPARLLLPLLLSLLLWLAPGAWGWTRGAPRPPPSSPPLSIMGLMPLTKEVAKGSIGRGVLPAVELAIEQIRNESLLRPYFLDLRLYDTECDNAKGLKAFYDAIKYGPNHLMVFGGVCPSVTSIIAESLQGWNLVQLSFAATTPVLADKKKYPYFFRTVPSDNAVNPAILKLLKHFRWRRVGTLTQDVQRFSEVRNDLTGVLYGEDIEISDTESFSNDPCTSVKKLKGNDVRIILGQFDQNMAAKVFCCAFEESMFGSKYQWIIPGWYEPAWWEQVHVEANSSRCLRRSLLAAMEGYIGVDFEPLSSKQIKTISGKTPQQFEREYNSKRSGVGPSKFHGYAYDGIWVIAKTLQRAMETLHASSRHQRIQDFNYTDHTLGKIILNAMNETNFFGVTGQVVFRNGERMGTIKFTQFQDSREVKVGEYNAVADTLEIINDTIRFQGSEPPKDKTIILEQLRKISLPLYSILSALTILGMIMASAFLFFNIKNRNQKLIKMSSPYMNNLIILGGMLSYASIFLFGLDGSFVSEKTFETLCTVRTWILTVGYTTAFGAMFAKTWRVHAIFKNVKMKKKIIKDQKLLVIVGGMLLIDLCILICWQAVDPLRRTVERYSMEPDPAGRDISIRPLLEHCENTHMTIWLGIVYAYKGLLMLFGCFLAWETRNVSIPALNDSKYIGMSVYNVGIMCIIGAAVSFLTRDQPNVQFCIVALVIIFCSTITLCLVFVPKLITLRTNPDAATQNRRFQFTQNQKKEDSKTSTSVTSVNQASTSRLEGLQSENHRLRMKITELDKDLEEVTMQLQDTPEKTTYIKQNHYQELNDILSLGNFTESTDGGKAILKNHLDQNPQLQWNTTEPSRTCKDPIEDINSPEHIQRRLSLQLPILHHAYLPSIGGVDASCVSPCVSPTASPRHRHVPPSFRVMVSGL

SMILES | pIC50 (Rattus norvegicus) | pIC50 [1] | pIC50 (GABA B receptor)
NCC1CC(=O)C=C(O)C1 (stereo not drawn) | < 4.00 | 4.19 | < 4.00
NCC(CC(=O)O)c1ccc(Cl)cc1 (stereo not drawn) [BACLOFEN] | 5.74 | 7.52 | –
O=C(O)C1CCCNC1 (stereo not drawn) [NIPECOTIC ACID] | 5.25 | < 4.00 | < 4.00
